Values joined by “and” are separate entries in the source; they are usually repeats but may differ in a detail not shown here. Equal values may be shown once. Toxic doses and inconclusive results are not listed. How the source made its calls: active means survival T/C of 150% or more; inactive means T/C below 125% in these data. Non-standard residues stand in square brackets, D forms with d. Residues, ends and D or L forms follow the SMILES beside them. ξ: configuration not given here. *: point of attachment. Trt = c1ccc(C(c2ccccc2)(c2ccccc2)*)cc1; Cbz = O=C(OCc1ccccc1)*; OtBu = CC(C)(C)O*; ξC = NC(CS)C(=O)O
System: CD2F1 mice, L1210 leukemia ip, survival T/C
Experiment: NCI In Vivo Anticancer Drug Screen. Data for tumor model L1210 Leukemia (intraperitoneal) in CD2F1 (CDF1) mice
Details: higher = longer survival
In short: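 Compound-dosed mice with transplantable tumor versus matched vehicle controls; endpoint ratio T/C reported.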

[1] = endpoint: mean survival time, dose: 100.0 mg/kg/injection, schedule: Q01DX009 (ip), vehicle: saline with Tween-80
[2] = endpoint: mean survival time, dose: 100.0 mg/kg/injection, schedule: Q04DX003 (ip), vehicle: saline with Tween-80
[3] = endpoint: mean survival time, dose: 200.0 mg/kg/injection, schedule: Q01DX009 (ip), vehicle: saline with Tween-80
[4] = endpoint: mean survival time, dose: 200.0 mg/kg/injection, schedule: Q04DX003 (ip), vehicle: saline with Tween-80
[5] = endpoint: mean survival time, dose: 400.0 mg/kg/injection, schedule: Q04DX003 (ip), vehicle: saline with Tween-80
[6] = endpoint: mean survival time, dose: 12.5 mg/kg/injection, schedule: Q01DX009 (ip), vehicle: saline with Tween-80
[7] = endpoint: mean survival time, dose: 25.0 mg/kg/injection, schedule: Q01DX009 (ip), vehicle: saline with Tween-80
[8] = endpoint: mean survival time, dose: 50.0 mg/kg/injection, schedule: Q01DX009 (ip), vehicle: saline with Tween-80
[9] = endpoint: mean survival time, dose: 100.0 mg/kg/injection, schedule: Q01DX009 (ip), vehicle: saline
[10] = endpoint: mean survival time, dose: 100.0 mg/kg/injection, schedule: Q04DX002 (ip), vehicle: saline with Tween-80
[11] = endpoint: mean survival time, dose: 12.5 mg/kg/injection, schedule: Q01DX009 (ip), vehicle: saline
[12] = endpoint: mean survival time, dose: 25.0 mg/kg/injection, schedule: Q01DX009 (ip), vehicle: saline
[13] = endpoint: mean survival time, dose: 50.0 mg/kg/injection, schedule: Q01DX009 (ip), vehicle: saline
[14] = endpoint: mean survival time, dose: 100.0 mg/kg/injection, schedule: Q01DX009 (ip), vehicle: other
[15] = endpoint: mean survival time, dose: 200.0 mg/kg/injection, schedule: Q01DX009 (ip), vehicle: other
[16] = endpoint: mean survival time, dose: 100.0 mg/kg/injection, schedule: Q01DX001 (ip), vehicle: saline
[17] = endpoint: mean survival time, dose: 200.0 mg/kg/injection, schedule: Q01DX001 (ip), vehicle: saline
[18] = endpoint: mean survival time, dose: 400.0 mg/kg/injection, schedule: Q01DX001 (ip), vehicle: saline
[19] = endpoint: mean survival time, dose: 100.0 mg/kg/injection, schedule: Q01DX001 (ip), vehicle: saline with Tween-80
[20] = endpoint: mean survival time, dose: 200.0 mg/kg/injection, schedule: Q01DX001 (ip), vehicle: saline with Tween-80
[21] = endpoint: mean survival time, dose: 400.0 mg/kg/injection, schedule: Q01DX001 (ip), vehicle: saline with Tween-80

Measured: T/C

COc1ccc(CCC(=O)O)cc1OC
inactive: [1] 96 % of control | [2] 98 % of control | [3] 97 % of control | [4] 96 % of control | endpoint: mean survival time, dose: 400.0 mg/kg/injection, schedule: Q01DX009 (ip), vehicle: saline with Tween-80 92 % of control | [5] 104 % of control

N#Cc1c(-c2ccccc2)c(-c2ccccc2)nn(CC(=O)O)c1=O
inactive: endpoint: median survival time, dose: 25.0 mg/kg/injection, schedule: Q01DX005 (ip), vehicle: distilled water + Tween-80 105 % of control | endpoint: median survival time, dose: 50.0 mg/kg/injection, schedule: Q01DX005 (ip), vehicle: distilled water + Tween-80 90 % of control | endpoint: median survival time, dose: 100.0 mg/kg/injection, schedule: Q01DX005 (ip), vehicle: distilled water + Tween-80 95 % of control | endpoint: median survival time, dose: 200.0 mg/kg/injection, schedule: Q01DX005 (ip), vehicle: distilled water + Tween-80 92 % of control

COc1ccc(C(=O)CCN2CCC(O)(c3ccccc3)CC2)cc1
inactive: [6] 93 % of control | [7] 97 % of control | [8] 89 % of control

CC(CO)(CO)[N+](=O)[O-]
inactive: [9] 98 % of control | endpoint: mean survival time, dose: 200.0 mg/kg/injection, schedule: Q01DX009 (ip), vehicle: saline 102 % of control | endpoint: mean survival time, dose: 400.0 mg/kg/injection, schedule: Q01DX009 (ip), vehicle: saline 104 % of control

CCCC(=O)Nc1ccc(O)cc1
inactive: endpoint: mean survival time, dose: 50.0 mg/kg/injection, schedule: Q01DX009 (ip), vehicle: Klucel (hydroxypropylcellulose) (HPC) 95 % of control | endpoint: mean survival time, dose: 100.0 mg/kg/injection, schedule: Q01DX009 (ip), vehicle: Klucel (hydroxypropylcellulose) (HPC) 91 % of control | endpoint: mean survival time, dose: 200.0 mg/kg/injection, schedule: Q01DX009 (ip), vehicle: Klucel (hydroxypropylcellulose) (HPC) 104 % of control | endpoint: mean survival time, dose: 400.0 mg/kg/injection, schedule: Q01DX009 (ip), vehicle: Klucel (hydroxypropylcellulose) (HPC) 123 % of control

O=C(SSCCSSCCSSC(=O)N1CCOCC1)N1CCOCC1
inactive: endpoint: mean survival time, dose: 100.0 mg/kg/injection, schedule: Q01DX001 (ip), vehicle: Klucel (hydroxypropylcellulose) (HPC) 93 % of control | endpoint: mean survival time, dose: 200.0 mg/kg/injection, schedule: Q01DX001 (ip), vehicle: Klucel (hydroxypropylcellulose) (HPC) 100 % of control | endpoint: mean survival time, dose: 400.0 mg/kg/injection, schedule: Q01DX001 (ip), vehicle: Klucel (hydroxypropylcellulose) (HPC) 93 % of control

COc1cc2ccnc(Nc3ccccc3)c2cc1OC
inactive: [10] 95 % of control | endpoint: mean survival time, dose: 200.0 mg/kg/injection, schedule: Q04DX002 (ip), vehicle: saline with Tween-80 95 % of control | endpoint: mean survival time, dose: 400.0 mg/kg/injection, schedule: Q04DX002 (ip), vehicle: saline with Tween-80 87 % of control

CN=C1N[N+]2=CCCCC2S1 (centres undefined)
inactive: endpoint: mean survival time, dose: 25.0 mg/kg/injection, schedule: Q04DX003 (ip), vehicle: saline 94 % of control | endpoint: mean survival time, dose: 50.0 mg/kg/injection, schedule: Q04DX003 (ip), vehicle: saline 94 % of control

CSc1ncnc2c1C[P+](Cc1ccccc1)(c1ccccc1)CC2 (centres undefined)
inactive: endpoint: mean survival time, dose: 25.0 mg/kg/injection, schedule: Q04DX002 (ip), vehicle: saline with Tween-80 101 % of control | endpoint: mean survival time, dose: 50.0 mg/kg/injection, schedule: Q04DX002 (ip), vehicle: saline with Tween-80 101 % of control | [10] 101 % of control

c1ccc(C[n+]2ccccc2)cc1
inactive: [11] 100 % of control | [12] 100 % of control | [8] 100 % of control | [13] 106 % of control

CC(=O)OCC1OC(OC(C)=O)C(NC(=O)Nc2cccc([N+](=O)[O-])c2)C(OC(C)=O)C1OC(C)=O (centres undefined)
inactive: endpoint: mean survival time, dose: 12.5 mg/kg/injection, schedule: Q01DX009 (ip), vehicle: other 96 % of control | endpoint: mean survival time, dose: 25.0 mg/kg/injection, schedule: Q01DX009 (ip), vehicle: other 96 % of control | endpoint: mean survival time, dose: 50.0 mg/kg/injection, schedule: Q01DX009 (ip), vehicle: other 98 % of control | [14] 100 % of control | [15] 93 % of control

OC(CN1CCOCC1)CN1CCOCC1
inactive: [16] 104 % of control | [17] 104 % of control | [18] 103 % of control

NC(N)=NCCN=C(N)N
inactive: [16] 105 % of control | [17] 94 % of control | [18] 100 % of control

CCOc1ccc(-n2c(=O)c(N=Nc3ccccc3)c(O)n(-c3ccccc3OC)c2=S)cc1
inactive: [19] 102 % of control | [20] 89 % of control | [21] 90 % of control

N#CC1C(C#N)C1C#N (centres undefined)
inactive: [19] 98 % of control | [20] 98 % of control

CC(C)(C)OC(=O)CNC(=O)CNC(=O)CNC(=O)C(CSC(c1ccccc1)(c1ccccc1)c1ccccc1)NC(=O)OCc1ccccc1 (centres undefined) (Cbz-[ξC](Trt)GGG-OtBu)
inactive: [2] 101 % of control | [4] 95 % of control | [5] 92 % of control

CC1(C)C(O)C(C)(C)C1O (centres undefined)
inactive: [7] 93 % of control | [8] 98 % of control | [2] 97 % of control

CC(=O)OCC1OC(n2nc(-c3ccccc3)c(=O)n(-c3ccccc3)c2=O)C(OC(C)=O)C(OC(C)=O)C1OC(C)=O (centres undefined)
inactive: endpoint: mean survival time, dose: 3.8 mg/kg/injection, schedule: Q01DX005 (ip), vehicle: water 96 % of control | endpoint: mean survival time, dose: 7.5 mg/kg/injection, schedule: Q01DX005 (ip), vehicle: water 96 % of control | endpoint: mean survival time, dose: 15.0 mg/kg/injection, schedule: Q01DX005 (ip), vehicle: water 96 % of control | endpoint: mean survival time, dose: 30.0 mg/kg/injection, schedule: Q01DX005 (ip), vehicle: water 101 % of control | endpoint: mean survival time, dose: 60.0 mg/kg/injection, schedule: Q01DX005 (ip), vehicle: water 101 % of control

CC(C)C(Nc1sc([N+](=O)[O-])cc1[N+](=O)[O-])C(=O)O (centres undefined)
inactive: [19] 90 % of control | [20] 102 % of control | [21] 107 % of control

N#CC1(OC2OC(CO)C(O)C(O)C2O)C=CC(O)C1O (centres undefined)
inactive: [16] 101 % of control | [17] 101 % of control | [18] 98 % of control

O=C1NC(O)c2ccccc2O1 (centres undefined)
inactive: [6] 101 % of control | endpoint: mean survival time, dose: 12.5 mg/kg/injection, schedule: Q01DX009 (ip), vehicle: suspension in saline 95 % of control | [7] 96 % of control | endpoint: mean survival time, dose: 25.0 mg/kg/injection, schedule: Q01DX009 (ip), vehicle: suspension in saline 97 % of control | [8] 98 % of control | endpoint: mean survival time, dose: 50.0 mg/kg/injection, schedule: Q01DX009 (ip), vehicle: suspension in saline 104 % of control | [1] 101 % of control and 108 % of control | endpoint: mean survival time, dose: 100.0 mg/kg/injection, schedule: Q01DX009 (ip), vehicle: suspension in saline 101 % of control | [3] 115 % of control and 106 % of control | endpoint: mean survival time, dose: 200.0 mg/kg/injection, schedule: Q01DX009 (ip), vehicle: suspension in saline 119 % of control | endpoint: mean survival time, dose: 400.0 mg/kg/injection, schedule: Q01DX009 (ip), vehicle: suspension in saline 95 % of control

c1ccc(CSC2=NCCS2)cc1
inactive: [2] 108 % of control | [4] 98 % of control | [5] 97 % of control

CC1OC(n2cc(C(N)=O)c3c(N)ncnc32)C(O)C1O (centres undefined)
inactive: [11] 103 % of control | [12] 103 % of control | [13] 103 % of control | [9] 105 % of control

Cc1cc(O)c2c(c1O)C(=O)c1cccc(O)c1C2=O
inactive: endpoint: mean survival time, dose: 0.75 mg/kg/injection, schedule: Q01DX009 (ip), vehicle: Klucel (hydroxypropylcellulose) (HPC) 103 % of control | endpoint: mean survival time, dose: 1.5 mg/kg/injection, schedule: Q01DX009 (ip), vehicle: Klucel (hydroxypropylcellulose) (HPC) 98 % of control | endpoint: mean survival time, dose: 3.0 mg/kg/injection, schedule: Q01DX009 (ip), vehicle: Klucel (hydroxypropylcellulose) (HPC) 101 % of control | endpoint: mean survival time, dose: 6.0 mg/kg/injection, schedule: Q01DX009 (ip), vehicle: Klucel (hydroxypropylcellulose) (HPC) 113 % of control

Cc1c(OCc2ccccc2)cccc1[N+](=O)[O-]
inactive: [14] 97 % of control | [2] 92 % of control | [15] 105 % of control | [4] 87 % of control | endpoint: mean survival time, dose: 400.0 mg/kg/injection, schedule: Q01DX009 (ip), vehicle: other 112 % of control | [5] 90 % of control

NC(=O)C12CCCCC1CCC2 (centres undefined)
inactive: [2] 103 % of control | [4] 96 % of control | [5] 97 % of control
